{"source": "patent US20150105433A1", "about": "“TREATING VIRAL INFECTIONS HAVING VIRAL RNAs TRANSLATED BY A NON-IRES MEDIATED MECHANISM” (THE UAB RESEARCH FOUNDATION, priority 2012, published 2015)", "key": {"RPS25 mRNA": {"system": "RPS25 mRNA", "assay": "RPS25 siRNA knockdown, northern analysis of RPS25 mRNA level", "type": "cell-based, human", "conditions": "Huh7.13 cells, transient siRNA transfection, 72 hours, RPS25 mRNA normalized to β-actin mRNA, relative to control", "method": "(§1) The day before transfection, 5×10^4 HeLa cells were seeded into 24-well plates. Once the cells reached 90% confluency, transfection of dual luciferase reporters was done using Lipofectamine 2000 (Invitrogen) according to the manufacturer's recommendations using 0.4 μg DNA per well. Cells were harvested for luciferase analysis after 24 hours. Double stranded RPS25 siRNAs, 5′-GGACUUAUCAAACUGGUUUtt-3′ (SEQ ID NO:3) and 5′-AAACCAGUUUGAUAAGUCCtt-3′ (SEQ ID NO:4) (Ambion, siRNA ID #142220), were used to knock down RPS25 in Huh7 cells. The Dicector™ DS (IDT; Coralville, Iowa) scrambled negative control duplex was used as a negative control. siRNA complexes were prepared in opti-MEM (Invitrogen) with 5 μl siPORT NeoFX transfection agent to a final siRNA concentration of 0.375 μM according to the manufacturer's specifications. siRNA complexes were plated and overlaid with 2×10^5 Huh7.13 cells in antibiotic-free media. The transfection media was replaced with complete media after 24 hours.\nTotal RNA was harvested with TRIzol (Invitrogen) according to the manufacturer's protocol from shRNA lentiviral transduced cells. […]"}, "HCV (JFH1, genotype 2a)": {"system": "HCV (JFH1, genotype 2a)", "assay": "HCV amplification in RPS25 knockdown Huh7.13 cells, quantitative western analysis for NS5A", "type": "cell-based, hepatitis C virus", "conditions": "Huh7.13 cells infected with HCV at low MOI, 72 hours after infection, versus non-targeting control siRNA", "method": "as §1\nThe HCV infection was carried out by inoculating Huh7.13 cells with 1 ml of culture medium from the HCV producer cell line Huh7 JFH1 HCV (genotype 2a). […]\nCells were lysed in E1 lysis buffer with 0.1% SDS. […] Signals were detected using flororchrome-conjugated secondary antibody for quantitative western blotting using the Odyssey scanner and software (LI-COR; Lincoln, Nebr.)."}}, "data": [{"substance": "siRNA that targets RPS25: Double stranded RPS25 siRNAs 5′-GGACUUAUCAAACUGGUUUtt-3′ (SEQ ID NO:3) and 5′-AAACCAGUUUGAUAAGUCCtt-3′ (SEQ ID NO:4), Ambion (chain 1 GGACUUAUCAAACUGGUUUTT; chain 2 AAACCAGUUUGAUAAGUCCTT; chemistry not given here)", "values": [{"measurement": "RPS25 knockdown effectiveness (RPS25 mRNA level)", "setting": "RPS25 mRNA", "value": "over 95%"}, {"measurement": "HCV NS5A protein expression (HCV amplification)", "setting": "HCV (JFH1, genotype 2a)", "value": "not detected"}]}]}
